Values after ≈ are worked out from the molar mass of the structure shown. Peptide text beside a SMILES is read from it. * marks the point of attachment. Cbz = O=C(OCc1ccccc1)*
What was measured:
Leishmania major = experiment: Antileishmanial activity against Leishmania major promastigotes after 48 hrs by MTT method; format: functional, organism-based
Huh-7 = experiment: Cytotoxicity against human HuH7 cells by XTT method; format: functional, cell-based
Leishmania guyanensis = experiment: Antileishmanial activity against Leishmania guyanensis promastigotes after 48 hrs by MTT method; format: functional, organism-based
Leishmania panamensis = experiment: Antileishmanial activity against Leishmania panamensis promastigotes after 48 hrs by MTT method; format: functional, organism-based
[1] = Cytotoxicity against african green monkey COS7 cells by XTT method; format: cell-based; details: Chlorocebus aethiops, COS-7

| Compound | IC50 (Leishmania major) | IC50 (Huh-7) | IC50 (Leishmania guyanensis) | IC50 (Leishmania panamensis) | IC50 [1] |
| --- | --- | --- | --- | --- | --- |
| C=C[C@@]1(C)Cc2c(O)ccc(O)c2C[C@H]1C(=C)C | 4.5 µg/mL (≈ 18.4 µM) |  |  |  |  |
| CC1=C2C(=O)c3c(O)ccc(O)c3CC2(C)CCC1=O (racemic) | 81.4 µg/mL (≈ 299 µM) | 71.8 µg/mL | 7 µg/mL (≈ 25.7 µM) | 13 µg/mL (≈ 47.7 µM) | 51.7 µg/mL |
| CC1(O)CCCC2(C)Cc3c(O)ccc(O)c3CC12 (racemic) | 2.7 µg/mL (≈ 10.3 µM) | 41.7 µg/mL | 3 µg/mL (≈ 11.4 µM) | 1.8 µg/mL (≈ 6.86 µM) | > 100 µg/mL |
| C/C(C=O)=C\CCC(C)(O)/C=C\c1cc(O)ccc1O (racemic) | > 25 µg/mL | > 100 µg/mL |  |  | > 100 µg/mL |
| CC1=C2C(=O)c3c(OC(=O)c4ccc(Br)cc4)ccc(OC(=O)c4ccc(Br)cc4)c3CC2(C)CCC1=O (racemic) | 23.5 µg/mL (≈ 36.8 µM) | > 100 µg/mL |  |  | > 100 µg/mL |
| CC(=O)Oc1ccc(OC(C)=O)c2c1CC1(C)CCC(=O)C(C)=C1C2=O (racemic) | 80.4 µg/mL (≈ 226 µM) | 65.5 µg/mL |  |  | 50.7 µg/mL |
| C=C[C@@]1(C)Cc2c(OC(C)=O)ccc(OC(C)=O)c2C[C@H]1C(=C)C [ACETYLCORDIAQUINOL C] | 1.4 µg/mL (≈ 4.26 µM) | 60.9 µg/mL |  |  | 20.1 µg/mL |
| C/C(C=O)=C\CC/C(C)=C/Cc1cc(O)ccc1O [ALLIODORIN] | 7 µg/mL (≈ 26.9 µM) | 44.8 µg/mL | 2 µg/mL (≈ 7.68 µM) | 1.8 µg/mL (≈ 6.91 µM) | 31.9 µg/mL |
| C[C@@H]1[C@H](O)[C@@H](C)/C=C/C=C/C=C/C=C/C=C/C=C/C=C/[C@H](O[C@@H]2O[C@H](C)[C@@H](O)[C@H](N)[C@@H]2O)C[C@@H]2O[C@](O)(C[C@@H](O)C[C@@H](O)[C@H](O)CC[C@@H](O)C[C@@H](O)CC(=O)O[C@H]1C)C[C@H](O)[C@H]2C(=O)O [AMPHOTERICIN B] | < 0.1 µg/mL |  | < 0.1 µg/mL | < 0.1 µg/mL |  |
| CC1=CCC[C@@]2(C)CC3=C(C[C@@H]12)C(=O)C=CC3=O [CORDIACHROME A] | 4.1 µg/mL (≈ 16.9 µM) | 61.1 µg/mL |  |  | 22.5 µg/mL |
| C=C1CCC[C@@]2(C)CC3=C(C[C@@H]12)C(=O)C=CC3=O [CORDIACHROME B] | 2.5 µg/mL (≈ 10.3 µM) | 71.5 µg/mL |  |  | 14.6 µg/mL |
| C=C[C@@]1(C)CC2=C(C[C@H]1C(=C)C)C(=O)C=CC2=O [Cordiachrome C] | 21.1 µg/mL (≈ 87.1 µM) |  | 6 µg/mL (≈ 24.8 µM) | 5.5 µg/mL (≈ 22.7 µM) |  |
| CC(C)C[C@@H](C=O)NC(=O)[C@H](CC(C)C)NC(=O)[C@H](CC(C)C)NC(=O)OCc1ccccc1 [MG-132] (Cbz-Leu-Leu-Leu-aldehyde) |  | < 10 µM |  |  | < 10 µM |
